Molecules are shown by their SMILES.

For orientation: IC50 means the concentration at which inhibition is half-maximal. A higher IC50 goes with weaker potency.

This assay has as its target T1, IRAK4 (Homo sapiens, UniProt Q9NWZ3).
T1 sequence (Q9NWZ3 1-460): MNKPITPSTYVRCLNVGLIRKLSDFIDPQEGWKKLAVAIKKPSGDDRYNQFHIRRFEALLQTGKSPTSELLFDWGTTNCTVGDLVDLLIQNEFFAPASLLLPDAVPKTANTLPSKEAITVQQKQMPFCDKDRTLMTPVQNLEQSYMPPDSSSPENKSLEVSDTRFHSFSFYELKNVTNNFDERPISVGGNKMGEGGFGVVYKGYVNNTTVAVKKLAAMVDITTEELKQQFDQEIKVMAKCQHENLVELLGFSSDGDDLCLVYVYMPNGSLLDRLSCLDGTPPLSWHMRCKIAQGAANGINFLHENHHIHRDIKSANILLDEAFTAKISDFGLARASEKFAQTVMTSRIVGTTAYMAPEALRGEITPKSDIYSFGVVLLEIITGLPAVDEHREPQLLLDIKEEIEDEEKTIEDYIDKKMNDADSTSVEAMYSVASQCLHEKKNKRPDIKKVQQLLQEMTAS
The experiment in a line: IRAK-4 activity inhibition assay (Caliper). In kind it is biochemical. The following applies: 37 μM ATP, 3.5 nM IRAK4.
Turning to `NC(=O)[C@@H](O)C[C@H]1CCc2sc3ncnc(O[C@H]4CC[C@H](N5CCCC5)CC4)c3c21` [Compound I-226, (S)-2-hydroxy-3-((R)-4-(((1r,4R)-4-(pyrrolidin-1-yl)cyclohexyl)oxy)-6,7-dihydro-5H-cyclopenta[4,5]thieno[2,3-d]pyrimidin-5-yl)propanamide], the IC50 was less than 5 µM.

Consider `CC(O)C[C@@H]1CCc2sc3ncnc(O[C@H]4CC[C@H](N5CCOCC5)CC4)c3c2C1` (stereo partly drawn) [Compound I-182, 1-((R)-4-(((1r,4R)-4-morpholinocyclohexyl)oxy)-5,6,7,8-tetrahydrobenzo[4,5]thieno[2,3-d]pyrimidin-6-yl)propan-2-ol], for which the IC50 was less than 5 µM.

In turn, `CC(=O)N1Cc2sc3ncnc(O[C@H]4CC[C@H](N5CCOCC5)CC4)c3c2C1` [Compound I-198, 1-(12-[[4-(morpholin-4-yl)cyclohexyl]oxy]-7-thia-4,9,11-triazatricyclo[6.4.0.0[2,6]]dodeca-1(12),2(6),8, 10-tetraen-4-yl)ethan-1-one] registered an IC50 of 20 to 50 µM.

The compound `NC(=O)CC[C@H]1CCc2sc3ncnc(O[C@H]4CC[C@H](N5CCOCC5)CC4)c3c21` [Compound I-84, 3-((S)-4-(((1r,4S)-4-morpholinocyclohexyl)oxy)-6,7-dihydro-5H-cyclopenta[4,5]thieno[2,3-d]pyrimidin-5-yl)propanamide] gave an IC50 of less than 5 µM.

`CC[C@@H](C[C@H]1CCc2sc3ncnc(N[C@H]4CC[C@H](N(C)C)CC4)c3c21)OC` [Compound I-148, (1r,4R)-N1-((R)-5-((S)-2-methoxybutyl)-6,7-dihydro-5H-cyclopenta[4,5]thieno[2,3-d]pyrimidin-4-yl)-N4,N4-dimethylcyclohexane-1,4-diamine] came in with an IC50 of less than 5 µM.

`CN(C)[C@H]1CC[C@H](Nc2ncnc3sc4c(c23)C(C(=O)O)CC4)CC1` (some centres unmarked) [Compound I-5, 4-(((1s,4s)-4-(dimethylamino)cyclohexyl)amino)-6,7-dihydro-5H-cyclopenta[4,5]thieno[2,3-d]pyrimidine-5-carboxylic acid] registered an IC50 of 5 to 20 µM.

With `CC[C@]1(N(C)C)CC[C@H](Oc2ncnc3sc4c(c23)[C@@H](CC(N)=O)CC4)CC1` [Compound I-95, 2-[(3R)-12-[[4-(dimethylamino)-4-ethylcyclohexyl]oxy]-7-thia-9,11-diazatricyclo[6.4.0.0[2,6]]dodeca-1(8),2(6),9,11-tetraen-3-yl]acetamide], the IC50 was less than 5 µM.

Compound `CN(C)[C@H]1CC[C@H](Nc2ncnc3sc4c(c23)C(C(=O)NCCCO)CC4)CC1` (some centres unmarked) [Compound I-28, 12-[[4-(dimethylamino)cyclohexyl]amino]-N-(3-hydroxypropyl)-7-thia-9,11-diazatricyclo[6.4.0.0̂[2,6]]dodeca-1(12),2(6),8,10-tetraene-3-carboxamide] had an IC50 of 20 to 50 µM.

The compound `COCCN(CCOC)[C@H]1CC[C@H](Oc2ncnc3sc4c(c23)[C@@H](CC(N)=O)CC4)CC1` [Compound I-134, 2-[(3R)-12-([4-[bis(2-methoxyethyl)amino]cyclohexyl]oxy)-7-thia-9,11-diazatricyclo[6.4.0.0[2,6]]dodeca-1(12),2(6),8,10-tetraen-3-yl]acetamide] gave an IC50 of less than 5 µM.

`CN(CCO)C(=O)CC1CCc2sc3ncnc(N[C@H]4CC[C@H](N(C)C)CC4)c3c21` (some centres unmarked) [Compound I-30, 2-(12-[[4-(dimethylamino)cyclohexyl]amino]-7-thia-9,11-diazatricyclo[6.4.0.0̂[2,6]]dodeca-1(8),2(6),9,11-tetraen-3-yl)-N-(2-hydroxyethyl)-N-methylacetamide] returned an IC50 of 20 to 50 µM.

`CC[C@H](O)C[C@H]1CCc2sc3ncnc(N[C@H]4CC[C@H](N(C)C)CC4)c3c21` [Compound I-54]: the IC50 was less than 5 µM.

The compound `NC(=O)C(O)C[C@H]1CCc2sc3ncnc(N[C@H]4CC[C@H](N5CCOCC5)CC4)c3c21` (mixture of isomers) [Compound I-118, 2-hydroxy-3-((R)-4-(((1r,4R)-4-morpholinocyclohexyl)amino)-6,7-dihydro-5H-cyclopenta[4,5]thieno[2,3-d]pyrimidin-5-yl)propanamide] showed an IC50 of less than 5 µM.

The compound `CC(=O)N1CCc2sc3ncnc(N[C@H]4CC[C@H](N(C)C)CC4)c3c2C1` [Compound I-173, 1-(3-[[4-(dimethylamino)cyclohexyl]amino]-8-thia-4,6,12-triazatricyclo[7.4.0.0-[2,7]]trideca-1(9),2(7),5-trien-12-yl)ethan-1-one] registered an IC50 of 5 to 20 µM.

Consider `CN(C)[C@H]1CC[C@H](Nc2ncnc3sc4c(c23)C(CC(=O)NCCO)CC4)CC1` (some centres unmarked) [Compound I-26, 2-(12-[[4-(dimethylamino)cyclohexyl]amino]-7-thia-9,11-diazatricyclo[6.4.0.0̂[2,6]]dodeca-1(8),2(6),9,11-tetraen-3-yl)-N-(2-hydroxyethyl)acetamide], for which the IC50 lay within 5 to 20 µM.

Consider `CN(C)[C@H]1CC[C@H](Nc2ncnc3sc4c(c23)C(CCO)CC4)CC1` (some centres unmarked) [Compound I-12, 2-(4-(((1r,4r)-4-(dimethylamino)cyclohexyl)amino)-6,7-dihydro-5H-cyclopenta[4,5]thieno[2,3-d]pyrimidin-5-yl)ethanol], for which the IC50 was less than 5 µM.

Take `NC(=O)CC[C@@H]1CCCc2sc3ncnc(O[C@H]4CC[C@H](N)CC4)c3c21` [Compound I-154, 3-((S)-4-(((1r,4S)-4-aminocyclohexyl)oxy)-5,6,7,8-tetrahydrobenzo[4,5]thieno[2,3-d]pyrimidin-5-yl)propanamide]: the IC50 was 5 to 20 µM.

Consider `CCOC(=O)C1CCc2sc3ncnc(O[C@H]4CC[C@H](N(C)C)CC4)c3c21` (some centres unmarked) [Compound I-4], for which the IC50 lay in the range of 20 to 50 µM.

Compound `CN(C)[C@H]1CC[C@H](Oc2ncnc3sc4c(c23)CN(C(=O)CC2CC2)CC4)CC1` [Compound I-170, 2-cyclopropyl-1-(3-[[4-(dimethylamino)cyclohexyl]oxy]-8-thia-4,6,12-triazatricyclo[7.4.0.0̂[2,7]]trideca-1(9),2(7),3,5-tetraen-12-yl)ethan-1-one] had an IC50 of 5 to 20 µM.

In turn, `COC(=O)CC1CCc2sc3ncnc(N[C@H]4CC[C@H](N(C)C)CC4)c3c21` (some centres unmarked) [Compound I-11] gave an IC50 of 5 to 20 µM.

Turning to `C[C@H](O)C[C@H]1CCc2sc3ncnc(O[C@H]4CC[C@H](N(C)CC(=O)N5CCCC5)CC4)c3c21` [Compound I-69, 2-(((1R,4r)-4-(((R)-5-((S)-2-hydroxypropyl)-6,7-dihydro-5H-cyclopenta[4,5]thieno[2,3-d]pyrimidin-4-yl)oxy)cyclohexyl)(methyl)amino)-1-(pyrrolidin-1-yl)ethanone], the IC50 was less than 5 µM.

`NC(=O)C1CCc2sc3ncnc(N[C@H]4CC[C@H](N5CCOCC5)CC4)c3c2C1` (some centres unmarked) [Compound I-203, 3-[[4-(morpholin-4-yl)cyclohexyl]amino]-8-thia-4,6-diazatricyclo[7.4.0.0[2,7]]trideca-1(9),2,4,6-tetraene-12-carboxamide]: the IC50 is less than 5 µM.

The compound `C#CCOC[C@H]1CCc2sc3ncnc(O[C@H]4CC[C@H](N(C)C)CC4)c3c21` [Compound I-49, N,N-dimethyl-4-[[(3S)-3-[(prop-2-yn-1-yloxy)methyl]-7-thia-9,11-diazatricyclo[6.4.0.0[2,6]]dodeca-1(8),2(6),9,11-tetraen-12-yl]oxy]cyclohexan-1-amine] registered an IC50 of less than 5 µM.

`C[C@@H](O)C[C@H]1CCc2sc3ncnc(N[C@H]4CC[C@H](N(C)C)CC4)c3c21` [Compound I-53] yielded an IC50 of less than 5 µM.

Regarding `CCC(O)[C@H]1CCc2sc3ncnc(O[C@H]4CC[C@H](N(C)C)CC4)c3c21` (stereo partly drawn) [Compound I-50, (S)-1-((S)-4-(((1r,4S)-4-(dimethylamino)cyclohexyl)oxy)-6,7-dihydro-5H-cyclopenta[4,5]thieno[2,3-d]pyrimidin-5-yl)propan-1-ol], the 50% inhibitory concentration (IC50) was 5 to 20 µM.

For the compound `CN(C)[C@H]1CC[C@H](Oc2ncnc3sc4c(c23)[C@@H](C[C@H](O)C2CCCO2)CC4)CC1` (stereo partly drawn) [Compound I-89, (1S)-2-((R)-4-(((1r,4R)-4-(dimethylamino)cyclohexyl)oxy)-6,7-dihydro-5H-cyclopenta[4,5]thieno[2,3-d]pyrimidin-5-yl)-1-(tetrahydrofuran-2-yl)ethanol], the IC50 was less than 5 µM.

The compound `C/C=C/COC[C@H]1CCc2sc3ncnc(O[C@H]4CC[C@H](N(C)C)CC4)c3c21` [Compound I-59, 4-[[(3S)-3-[[(2E)-but-2-en-1-yloxy]methyl]-7-thia-9,11-diazatricyclo[6.4.0.0[2,6]]dodeca-1(8),2(6),9,11-tetraen-12-yl]oxy]-N,N-dimethylcyclohexan-1-amine] returned an IC50 of less than 5 µM.

In the case of `C=C[C@H](O)C[C@H]1CCc2sc3ncnc(O[C@H]4CC[C@](CC)(N(C)C)CC4)c3c21` [Compound I-124, (R)-1-((R)-4-(((1r,4R)-4-(dimethylamino)-4-ethylcyclohexyl)oxy)-6,7-dihydro-5H-cyclopenta[4,5]thieno[2,3-d]pyrimidin-5-yl)but-3-en-2-ol], the IC50 lay in the range of 5 to 20 µM.

For the compound `CN(C)[C@H]1CC[C@H](Nc2ncnc3sc4c(c23)C(C(=O)NCc2cccnc2)CC4)CC1` (some centres unmarked) [Compound I-25, 12-[[4-(dimethylamino)cyclohexyl]amino]-N-(pyridin-3-ylmethyl)-7-thia-9,11-diazatricyclo[6.4.0.0̂[2,6]]dodeca-1(12),2(6),8,10-tetraene-3-carboxamide], the IC50 lay in the range of 20 to 50 µM.

For the compound `CCN[C@H]1CC[C@H](Oc2ncnc3sc4c(c23)[C@@H](C[C@@H](O)C(N)=O)CC4)CC1` [Compound I-139, (2R)-3-[(3R)-12-[[4-(ethylamino)cyclohexyl]oxy]-7-thia-9,11-diazatricyclo[6.4.0.0[2,6]]dodeca-1(8),2(6),9,11-tetraen-3-yl]-2-hydroxypropanamide], the IC50 was less than 5 µM.

For the origin of these results see patent US20160193216A1 (Nimbus Iris, Inc., priority 2012, published 2016).
